According to patent US20090111894A1, “Method of Preventing Microbial Growth” (priority 2005, published 2009):

How the values were obtained:
Assay type in all cases: cell-based
Bacillus subtilus = assay: Inhibition effect in model media (MIC), optical density growth reading; details: BHI, 30° C., weight/volume
Description: (§1) The inhibition effect of Hydroxyacetaldehyde was tested in model media at various concentration levels and at 3 different pH's and against various micro-organisms at 30° C.
(§2) The medium was Brain Heart Infusion Broth (BHI) or Malt Water. Tested were: • Bacillus subtilus in BHI • Echerichia coli in BHI • Staphylococcus aureus in BHI • Saccharomyces cerevisieae in Malt water • Penicillium crustosum in Malt water
(§3) The pH of the media was set in the medium to 4.5 5.0 and 6.0, respectively. Hydroxyacetaldehyde concentrations were: 0, 0.0125, 0.025, 0.05, 0.1, 0.2, and 0.4%. Growth was recorded by an automated Optical Density reader (NEPHELOstar Galaxy of the manufacturer BMG).

Echerichia coli = assay: as above; details: BHI, 30° C., weight/volume
Description: as §1, §2, §3

Penicillium crustosum = assay: as above; details: Malt water, 30° C., weight/volume
Description: as §1, §2, §3

Staphylococcus aureus = assay: as above; details: BHI, 30° C., weight/volume
Description: as §1, §2, §3

Candida parapsilosis = assay: as above; details: 30° C., weight/volume
[1] = system: Talaromyces trachyspermus; assay: Inhibition effect in Ice Tea (MIC); details: Lipton Ice Tea with apple juice, 25° C.
Description: (§4) The inhibition effect of Hydroxyacetaldehyde was tested in Ice Tea at various concentrations, at 2 different pH's and against 2 micro-organisms at 25° C. Tested were: • Zygosaccharomyces bailii • Talaromyces trachyspermus
(§5) The medium was Lipton Ice Tea with apple juice. The pH of the medium was set at 4.5 and 6.0, respectively. Hydroxyacetaldehyde concentrations were: 0, 0.0125, 0.025, 0.05, 0.1, 0.2, 0.4 and 0.8%. Growth was recorded by an automated optical density reader NEPHELOstar Galaxy of the manufacturer BMG. The MIC (Minimal Inhibition Concentration) for the different micro-organisms were: […]

Zygosaccharomyces bailii = assay: Inhibition effect in Ice Tea (MIC); details: Lipton Ice Tea with apple juice, 25° C.
Description: as §4, §5

Bacteria = assay: Reduction of organisms in corrugated board pulp; details: pulp at 20° C.
Description: (§6) Contamination with moulds and bacteria is known to be serious problem for corrugated board. Hydroxyacetaldehyde was added to the corrugated board pulp during production to determine if it would be possible to produce a mould-free corrugated board.
(§7) To 40 gram of small pieces of cut corrugated board 300 ml of sterile water was added. This was mixed to form a pulp. This pulp was divided into 3 portions to which 0, 0.5 and 2% hydroxyacetaldehyde was added. The pulp was incubated at 20° C. and after 0, 2, 5 and 22 hours the number of organisms per gram pulp was measured. The reduction factor (cfu at to/cfu at tn) was as follows: […]

Moulds = assay: Reduction of organisms in corrugated board pulp; details: pulp at 20° C.
Description: as §6, §7

[2] = 0.5 hydroxyacetaldehyde, incubation 2 hours
[3] = 0.5 hydroxyacetaldehyde, incubation 5 hours
[4] = 0.5 hydroxyacetaldehyde, incubation 22 hours
[5] = 2% hydroxyacetaldehyde, incubation 2 hours
[6] = 2% hydroxyacetaldehyde, incubation 5 hours
[7] = 2% hydroxyacetaldehyde, incubation 22 hours

O=CCO [Hydroxyacetaldehyde]
MIC (Minimal Inhibition Concentration) (Bacillus subtilus; pH 4.5): 0.1%
MIC (Minimal Inhibition Concentration) (Bacillus subtilus; pH 5): 0.1%
MIC (Minimal Inhibition Concentration) (Bacillus subtilus; pH 6): 0.1%
MIC (Minimal Inhibition Concentration) (Echerichia coli; pH 4.5): 0.1%
MIC (Minimal Inhibition Concentration) (Echerichia coli; pH 5): 0.1%
MIC (Minimal Inhibition Concentration) (Echerichia coli; pH 6): 0.1%
MIC (Minimal Inhibition Concentration) (Penicillium crustosum; pH 4.5): 0.1%
MIC (Minimal Inhibition Concentration) (Penicillium crustosum; pH 6): 0.1%
MIC (Minimal Inhibition Concentration) (Staphylococcus aureus; pH 4.5): 0.05%
MIC (Minimal Inhibition Concentration) (Staphylococcus aureus; pH 5): 0.05%
MIC (Minimal Inhibition Concentration) (Staphylococcus aureus; pH 6): 0.05%
MIC (Minimal Inhibition Concentration) (Candida parapsilosis; pH 4.5): 0.2%
MIC (Minimal Inhibition Concentration) (Candida parapsilosis; pH 6): 0.2%
MIC (Minimal Inhibition Concentration) ([1]; pH 4.5): 0.1%
MIC (Minimal Inhibition Concentration) ([1]; pH 6): 0.1%
MIC (Minimal Inhibition Concentration) (Zygosaccharomyces bailii; pH 4.5): 0.8%
MIC (Minimal Inhibition Concentration) (Zygosaccharomyces bailii; pH 6): 0.8%
reduction factor (cfu at to/cfu at tn) (Bacteria; [2]): 3.8
reduction factor (cfu at to/cfu at tn) (Bacteria; [3]): 4.1
reduction factor (cfu at to/cfu at tn) (Bacteria; [4]): 25.5
reduction factor (cfu at to/cfu at tn) (Bacteria; [5]): 7.4
reduction factor (cfu at to/cfu at tn) (Bacteria; [6]): 26.4
reduction factor (cfu at to/cfu at tn) (Bacteria; [7]): >1.4e4
reduction factor (cfu at to/cfu at tn) (Moulds; [2]): 20
reduction factor (cfu at to/cfu at tn) (Moulds; [3]): 40
reduction factor (cfu at to/cfu at tn) (Moulds; [4]): >40
reduction factor (cfu at to/cfu at tn) (Moulds; [5]): >40
reduction factor (cfu at to/cfu at tn) (Moulds; [6]): >40
reduction factor (cfu at to/cfu at tn) (Moulds; [7]): >40
